Literature values, collected in US20100151572A1, “ANTI-TUMORAL COMPOSITIONS METHODS” (priority 2005, published 2010).

What was measured:
[1] = target: E. coli PNP (Escherichia coli, UniProt P0ABP8); details: abrogates E. coli PNP activity; cited from earlier work
[2] = target: T1, human enzyme (PNP) (Homo sapiens, UniProt P00491); details: cited from earlier work
T1 sequence (P00491 1-289): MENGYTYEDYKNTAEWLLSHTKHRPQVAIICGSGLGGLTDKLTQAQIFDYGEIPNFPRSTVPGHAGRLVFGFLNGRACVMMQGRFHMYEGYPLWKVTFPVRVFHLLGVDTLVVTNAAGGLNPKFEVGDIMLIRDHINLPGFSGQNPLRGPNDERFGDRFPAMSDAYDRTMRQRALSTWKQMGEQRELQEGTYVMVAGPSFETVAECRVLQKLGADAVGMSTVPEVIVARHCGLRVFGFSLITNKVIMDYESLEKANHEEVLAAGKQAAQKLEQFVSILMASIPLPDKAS

Chain of E. coli PNP (P0ABP8 whole entry): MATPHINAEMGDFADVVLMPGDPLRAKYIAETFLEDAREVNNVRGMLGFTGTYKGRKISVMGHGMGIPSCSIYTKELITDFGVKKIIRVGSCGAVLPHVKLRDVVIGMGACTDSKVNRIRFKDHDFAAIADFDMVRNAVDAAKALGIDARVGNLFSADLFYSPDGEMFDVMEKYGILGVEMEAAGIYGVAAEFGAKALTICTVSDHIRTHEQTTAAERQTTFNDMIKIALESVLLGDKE

In the case of `Nc1ncnc2c([C@@H]3O[C@H](CO)[C@@H](O)[C@H]3O)[nH]nc12` [Formycin A], the Ki [1] is given as 5 µM and the “activity against the human enzyme” value [2] is given as “inactive”.
